Where two headings read alike, the source gives them in different places.
What was measured:
[1] = tested on: uric acid crystals in rat kidneys; details: for kidney weight / serum uric acid: day 5; for kidneys observed with obvious radial white lines (uric acid crystal deposition): 5 days
Description: Except for the normal control group, the other groups were intraperitoneally injected with 300 mg/kg of potassium oteronate and intragastrically perfused with 300 mg/kg of hypoxanthine, and the volume of injection and intragastrical perfusion were 5 ml/kg respectively. The normal control group was administered with the same volume of 0.5% CMC-Na, and the model was established at 0.5 h after the second administration every day with once a day and for five consecutive days. […] The normal and model control groups were administered with the same volume of 0.5% CMC-Na by gastric perfusion.
On the 4th day of the test, the rats were fasted overnight (about 16 h). On the 5th day of the test, the rats were weighed and anesthetized by intraperitoneal injection of 60 mg/kg sodium pentobarbital, with an injection volume of 2 ml/kg. About 0.7 mL of blood was collected from the orbit and then the kidney was removed. The whole blood was centrifuged at 6000 r/min for 10 min, the supernatant was taken and stored at -20° C. for keeping the blood uric acid content to be determined. The kidney was weighed, opened to observe the deposition of uric acid crystals in white radial pattern, and stored at -70° C. for future use.
Uric acid content determination: After the serum was rapidly remelted, the uric acid content was determined according to the method specified in the instructions for use, and the serum uric acid content was calculated.
Data processing: The data were expressed as mean ± standard deviation (x ± SD) and analyzed with SPSS 25.0 software. One-Way ANOVA was used for comparison among multiple groups. LSD test was used for homogeneity of variance, where P <0.05 was considered as statistically significant.

[2] = 50 mg sodium urate in 35 ml of 0.3 mol/L solution pH 7.4±0.5, 36.5° C., 4 hours, 60 rpm
[3] = 36.5° C., 60 rpm
Description: Experimental materials were as follows: a. uric acid (crystal); b.
Background: An assumption was set that a 60 kg hyperuricemic patient with a total blood volume of 4500 ml has 7 mg of uric acid dissolved in 100 ml of blood and 3 mg of uric acid crystals in 100 ml of blood.

## Cl.NC(CO)(CO)CO [Changsheng No. 1, trimethylol aminomethane hydrochloride]
21 mg uric acid in 100 ml of 8 mM (pH 7.4) solution, stirring 1 hour
  dissolution of uric acid in the solution: completely dissolved
After treatment with the solution, extrapolated to blood
  uric acid level at which the complex did not precipitate as crystals: up to 1260 µmol/L
[1]; 0.85-3.40 g/kg, solution at pH 7.4
  uric acid crystal deposition in the kidney, dose dependence: dose-dependently reduced
[1]; 0.85 g/kg
  kidney weight: 2.636 ± 0.491 g
  serum uric acid: 976.91 ± 172.29 µmol/L
[1]; 0.85 g/kg/day by gavage
  kidneys observed with obvious radial white lines (uric acid crystal deposition): 11/14
[1]; 1.70 g/kg
  kidney weight: 2.507 ± 0.461 g
  serum uric acid: 838.42 ± 3.19 µmol/L
[1]; 1.7 g/kg/day by gavage
  kidneys observed with obvious radial white lines (uric acid crystal deposition): 5/14
[1]; 3.40 g/kg
  kidney weight: 2.207 ± 0.114 g
  serum uric acid: 965.17 ± 215.90 µmol/L
[1]; 3.40 g/kg/day by gavage, hydrochloride
  kidneys observed with obvious radial white lines (uric acid crystal deposition): no difference from that of the normal control group
[1]; 3.40 g/kg/day by gavage, listed as Changsheng No.1, hydrochloride
  kidneys observed with obvious radial white lines (uric acid crystal deposition): none of 14
[1]; all dose groups (0.85, 1.70, 3.40 g/kg)
  blood uric acid content compared with the model control group: effect of improvement
[2]
  dissolution of sodium urate crystals: dissolved completely
[3]; test 1: 0.3 mol/L, 0.5 ml/kg (30 ml), 7 mg dissolved + 3 mg crystalized uric acid per 100 ml
  Dissolving time: 4 h
[3]; test 2: 0.3 mol/L, 1.0 ml/kg (60 ml), 7 mg dissolved + 3 mg crystalized uric acid per 100 ml
  Dissolving time: 2 h
[3]; test 3: 0.3 mol/L, 1.5 ml/kg (90 ml), 7 mg dissolved + 3 mg crystalized uric acid per 100 ml
  Dissolving time: 2 h
[3]; test 4: 0.3 mol/L, 2.0 ml/kg (120 ml), 7 mg dissolved + 3 mg crystalized uric acid per 100 ml
  Dissolving time: 0.5 h
[3]; test 5: 0.3 mol/L, 3.0 ml/kg (180 ml), 7 mg dissolved + 3 mg crystalized uric acid per 100 ml
  Dissolving time: 0.5 h
[3]; test 6: 0.6 mol/L, 0.5 ml/kg (30 ml), 7 mg dissolved + 8 mg crystalized uric acid per 100 ml
  Dissolving time: 4 h
[3]; test 7: 0.6 mol/L, 1.0 ml/kg (60 ml), 7 mg dissolved + 8 mg crystalized uric acid per 100 ml
  Dissolving time: 2 h
[3]; test 8: 0.6 mol/L, 1.5 ml/kg (90 ml), 7 mg dissolved + 8 mg crystalized uric acid per 100 ml
  Dissolving time: 0.5 h

Reference: patent US20230330041A1, “APPLICATION OF TRIS (HYDROXYMETHYL) AMINOMETHANE PHARMACEUTICALLY ACCEPTABLE SALT TO DRUGS FOR TREATING […]” (BEIJING CHANGSHENG PHARMACEUTICAL TECHNOLOGY CO., LTD., priority 2020, published 2023)
